# Key:
# [1] = Polarity index (interfacial tension of the oil with respect to water); format: physicochemical; conditions: for polarity index: Table 1, printed under the ingredient name; for polarity index mN/m: Table 2
# From the text: The term “polarity index” is a parameter which is known to the person skilled in the art. The polarity of an oil is defined as the polarity index (interfacial tension) of the oil with respect to water. The interfacial tension, i. e. the polarity index, can be particularly determined using a ring tensiometer (e.g., Krüss K 10), which measures the interfacial tension in mN/m in analogy to the ASTM method D971-99a (2004).
# [2] = Particle size by laser diffraction (Malvern Mastersizer 2000) and/or Coulter Delsa Nano S; format: physicochemical
# From the text: The term ‘mean particle size’ as used herein refers to the mean number-based particle size distribution Dn50 (also known as Dn0.5) as determined by laser diffraction e.g. with a Malvern Mastersizer 2000 (ISO 13320:2009).
# All particles sizes have been determined by laser diffraction with a Malvern Mastersizer 2000 according to the method as outlined in ISO 13320:2009 and/or a Coulter Delsa Nano S (dynamic laser scattering).
molecule,measurement,setting,value
CCCCCCCCCCCCCC(C)C [Isohexadecane],polarity index,[1],(polarity index 43.8 mN/m)
same,polarity index mN/m,[1],43.8 mN/m
"c1ccc2oc(-c3ccc(-c4nc5ccccc5o4)cc3)nc2c1 [DBO-400 (A), 1,4-di(benzoxazol-2′-yl)benzene]",Particle size Dn50,[2],380 nm
Isocetyl Stearate,polarity index mN/m,[1],36.2 mN/m
"CC(C)OC(=O)CCCCC(=O)OC(C)C [Diiso propyl adipate, Diisopropyl Adipate]",polarity index,[1],11.6 mN/m)
same,polarity index mN/m,[1],11.6 mN/m

# From patent US11931444B2, “Topical composition” (DSM IP Assets B.V., priority 2018, dated 2024)
